Measured values published in patent publication US8445516B2, “Pharmaceutical composition for promoting angiogenesis” (Otsuka Pharmaceutical Co., Ltd., priority 2004, dated 2013).

Columns and labels:
Format in all cases: cell-based
[1] = system: human aortic endothelial cells; assay: Luminalization (tube formation) of vascular endothelial cells in gel; conditions: for Length of formed tube (Pixel): third day, mean ± SE, control 13.3 ± 0.4
Protocol: The test was conducted according to a report by Yasunaga, C. et al. (Lab Invest, 1989; 61: 698-704). Briefly, human aortic endothelial cells (Cambrex Corp.) were cultured in MCDB131 medium to confluent state. Cells prepared with medium containing the Test Compound A, 5×10^4 cells/well, were added on cell matrix gel (Nitta Gelatin Co.) and cultured for 4 hours to adhere cells. After medium removal, gel was added to embed cells, and medium containing the drug was added on the upper layer, then length of the formed tube was measured on the third day based on digital camera image by using Scion Image (Scion Corp.). The statistical analysis was performed as follows: Data were analyzed using Williams' test after linear regression analysis. The difference between test compound groups and non-treated group were considered statistical significant at P<0.05.

[2] = system: human aortic endothelial cells; assay: Vascular endothelial cell migration (48 well micro chemotaxis chamber); conditions: for Number of Migration cell: 4 hours, mean ± SE, control 34 ± 8
Protocol: The test was conducted according to a report by Witzenbichler, B. et al. (J. Biol. Chem., 273, 18514-18521, 1998). Briefly, human aortic endothelial cells (Cambrex Corp.) were cultured in MCDB131 medium to confluent state. Cell migration was tested by using a 48 well micro chemotaxis chamber (Neuro Probe Inc.). The Test Compound A was added into the lower layer of a well, while cells, 1×10^4 cells per well, were added into the upper layer, and those were cultured for 4 hours. Cells were immobilized with methanol and cells in the upper layer of a filter were removed, and cells migrated on the filter were stained with Diff Quick (International Reagents Corp.), then numbers of migrated endothelial cells observed from digital camera image were counted by using Scion Image (Scion Corp.). The statistical analysis was performed as follows: Data were analyzed using Williams' test after linear regression analysis. The difference between test compound groups and non-treated group were considered statistical significant at P<0.05.

[3] = system: thoracic aortic ring specimens of rat; assay: Rat aortic ring culture: angiogenesis promoting action (newly grown micro-vessels); conditions: for Number of micro-vessels: 7 days culture, mean ± SE, control 20 ± 2
Protocol: The test was conducted according to a report by Nicosia R. F. et al. (In Vitro Cell Dev Biol 26, 119-128, 1990). Briefly, thoracic aorta was removed from rat under ether anesthesia, and aortic rings were obtained by cross-sectioning at 1 mm intervals. The aortic rings were embedded into type I collagen gel (Koken Co.). Further, MCDB131 medium (Gibco BRL Co.) containing the Test Compound A was added to the upper layer, and the medium was exchanged every three days. After 7 days from the culture, micro-vessels newly grown from a cutting section of the aortic ring specimens were stained with alkaline phosphatase, then numbers of micro-vessels observed based on digital camera image were counted by using Scion Image (Scion Corp.). The statistical analysis was performed as follows: Data were analyzed using Dunnett's test with randamized block design. The difference between test compound groups and non-treated group were considered statistical significant at P<0.05.

[4] = dose dependent manner, compared with non-treated control group

Compound: CCC(=O)Nc1c(C)cc(C(=O)N2CCC(N(C)CCc3ccccc3)CC2)cc1C [Test Compound A, 4-[N-methyl-N-(2-phenylethyl)amino]-1-(3,5-dimethyl-4-propionylaminobenzoyl)piperidine]
- Length of formed tube (Pixel) ([1]; Concentration 6 (−Log M)): 48.4 ± 5.3 Pixel
- Length of formed tube (Pixel) ([1]; Concentration 7 (−Log M)): 32.2 ± 3.8 Pixel
- Length of formed tube (Pixel) ([1]; Concentration 8 (−Log M)): 15.7 ± 0.9 Pixel
- Effect on length of formed tube (in words) [1, 4]: significantly increased length of formed tube
- Number of Migration cell ([2]; Concentration 8 (−Log M)): 64 ± 7
- Number of Migration cell ([2]; Concentration 9 (−Log M)): 64 ± 8
- Number of Migration cell ([2]; Concentration 10 (−Log M)): 49 ± 6
- Number of Migration cell ([2]; Concentration 11 (−Log M)): 42 ± 6
- Number of Migration cell ([2]; Concentration 12 (−Log M)): 41 ± 8
- Effect on numbers of migration cells (in words) [2, 4]: significantly increased numbers of migration cells
- Number of micro-vessels ([3]; Concentration 6 (−Log M)): 35 ± 4
- Number of micro-vessels ([3]; Concentration 7 (−Log M)): 33 ± 3
- Number of micro-vessels ([3]; Concentration 8 (−Log M)): 32 ± 4
- Number of micro-vessels ([3]; Concentration 9 (−Log M)): 27 ± 2
- Number of micro-vessels ([3]; Concentration 10 (−Log M)): 30 ± 3
- Number of micro-vessels ([3]; Concentration 11 (−Log M)): 22 ± 3
- Number of micro-vessels ([3]; Concentration 12 (−Log M)): 24 ± 3
- Effect on numbers of newly grown micro-vessels (in words) [3, 4]: significantly increased numbers of newly grown micro-vessels
